US20180200257A1, “METHODS FOR THE TREATMENT OF INFLAMMATORY DISORDERS” (Galapagos NV, priority 2015, published 2018)

System: subjects with moderately to severely active RA who have an inadequate response to methotrexate (MTX)
Experiment: Study 1 (add-on to MTX) - Alanine Aminotransferase (ALT) levels
Type: in vivo, human
Conditions: 24 weeks results
Protocol: Double-blind, placebo-controlled add on study in subjects with moderately to severely active RA who have an inadequate response to methotrexate (MTX) (oral or parenteral).
595 subjects randomized to one of 6 dose regimens of Compound 1 (dosed as [Compound 1:HCl:3H2O]) (3 dose levels administered either once or twice daily) or placebo on top of each subject's stable dose of MTX.
Compound 1 (dosed as [Compound 1:HCl:3H2O]) is dosed for twelve weeks once daily (q.d.) (50 mg, 100 mg or 200 mg) or twice daily (b.i.d.) (25 mg, 50 mg or 100 mg); or placebo.
At Week 12, the subjects on placebo who have not achieved 20% improvement in swollen joint count (SJC66) and tender joint count (TJC68) are re-randomized automatically to receive Compound 1 (dosed as a [Compound 1:HCl:3H2O]) either at 100 mg q.d. or 50 mg b.i.d. doses in a blinded fashion; subjects on 50 mg q.d. who have not achieved 20% improvement in SJC66 and TJC68 will be assigned to 100 mg q.d. and subjects on 25 mg b.i.d. that have not achieved a 20% improvement in SJC66 and TJC68 will be assigned to 50 mg b.i.d. Subjects who switch treatment at week 12 are handled as if they discontinued at week 12 for the purpose of statistical analysis, whereas subjects in the other groups will maintain their randomized treatment until Week 24.
ALT levels determination is available at Quest Diagnostics, Clinical Trials, Quest House, 125-135 Staines Road, Hounslow, Middlesex, TW3 3JB, United Kingdom under Catalogue n#84460.
ALT catalyzes the exchange of the amino group of alanine with the oxogroup of 2-ketoglutarate to form pyruvate and glutamate. In the presence of lactic dehydrogenase, pyruvate reacts with NADH to form NAD+, measured spectrophotometrically. Guidelines for the ALT value have been issued by the association for Clinical Biochemistry and Laboratory Medicine, 130-132 Tooley Street LONDON SE1 2TU, united Kingdom, wherein the ALT value should be below 34 U/l in Female and below 52 U/L in male.

[1] = continued 100 mg b.i.d., week 1
[2] = continued 100 mg b.i.d., week 2
[3] = continued 100 mg b.i.d., week 4
[4] = continued 100 mg b.i.d., week 8
[5] = continued 100 mg b.i.d., week 12
[6] = continued 100 mg b.i.d., week 16
[7] = continued 100 mg b.i.d., week 20
[8] = continued 100 mg b.i.d., week 24
[9] = from 25 mg b.i.d. to 50 mg b.i.d. at 12 weeks, week 1
[10] = from 25 mg b.i.d. to 50 mg b.i.d. at 12 weeks, week 2
[11] = from 25 mg b.i.d. to 50 mg b.i.d. at 12 weeks, week 4
[12] = from 25 mg b.i.d. to 50 mg b.i.d. at 12 weeks, week 8
[13] = from 25 mg b.i.d. to 50 mg b.i.d. at 12 weeks, week 12
[14] = from 25 mg b.i.d. to 50 mg b.i.d. at 12 weeks, week 16
[15] = from 25 mg b.i.d. to 50 mg b.i.d. at 12 weeks, week 20
[16] = from 25 mg b.i.d. to 50 mg b.i.d. at 12 weeks, week 24
[17] = from 50 mg q.d. to 100 mg q.d. at 12 weeks, week 1
[18] = from 50 mg q.d. to 100 mg q.d. at 12 weeks, week 2
[19] = from 50 mg q.d. to 100 mg q.d. at 12 weeks, week 4
[20] = from 50 mg q.d. to 100 mg q.d. at 12 weeks, week 8
[21] = from 50 mg q.d. to 100 mg q.d. at 12 weeks, week 12
[22] = from 50 mg q.d. to 100 mg q.d. at 12 weeks, week 16
[23] = from 50 mg q.d. to 100 mg q.d. at 12 weeks, week 20
[24] = from 50 mg q.d. to 100 mg q.d. at 12 weeks, week 24
[25] = placebo switched to 50 mg b.i.d. at week 12, week 16
[26] = placebo switched to 50 mg b.i.d. at week 12, week 20
[27] = placebo switched to 50 mg b.i.d. at week 12, week 24
[28] = placebo switched to 100 mg q.d. at week 12, week 16
[29] = placebo switched to 100 mg q.d. at week 12, week 20
[30] = placebo switched to 100 mg q.d. at week 12, week 24

Structure (SMILES): O=C(Nc1nc2cccc(-c3ccc(CN4CCS(=O)(=O)CC4)cc3)n2n1)C1CC1 [Compound 1, cyclopropanecarboxylic acid {5-[4-(1,1-dioxo-thiomorpholin-4-ylmethyl)-phenyl]-[1,2,4]triazolo[1,5-a]pyridin-2-yl}-amide]
- Study 1 - ALT Mean CFB (continued 50 mg q.d., week 12): 0.5 IU/L
- Study 1 - ALT Mean percentage CFB (continued 50 mg q.d., week 12): 13.8%
- Study 1 - ALT Mean CFB (continued 50 mg q.d., week 16): 1.1 IU/L
- Study 1 - ALT Mean percentage CFB (continued 50 mg q.d., week 16): 18.1%
- Study 1 - ALT Mean CFB (continued 50 mg q.d., week 20): 2.2 IU/L
- Study 1 - ALT Mean percentage CFB (continued 50 mg q.d., week 20): 22.1%
- Study 1 - ALT Mean CFB (continued 50 mg q.d., week 24): 1.7 IU/L
- Study 1 - ALT Mean percentage CFB (continued 50 mg q.d., week 24): 19.4%
- Study 1 - ALT Mean CFB [1]: 0.5 IU/L
- Study 1 - ALT Mean percentage CFB [1]: 8.8%
- Study 1 - ALT Mean CFB [2]: 0.8 IU/L
- Study 1 - ALT Mean percentage CFB [2]: 10.4%
- Study 1 - ALT Mean CFB [3]: 0.8 IU/L
- Study 1 - ALT Mean percentage CFB [3]: 20.4%
- Study 1 - ALT Mean CFB [4]: 0.6 IU/L
- Study 1 - ALT Mean percentage CFB [4]: 24.5%
- Study 1 - ALT Mean CFB [5]: 1.7 IU/L
- Study 1 - ALT Mean percentage CFB [5]: 26.0%
- Study 1 - ALT Mean CFB [6]: 3.2 IU/L
- Study 1 - ALT Mean percentage CFB [6]: 32.4%
- Study 1 - ALT Mean CFB [7]: 2.8 IU/L
- Study 1 - ALT Mean percentage CFB [7]: 34.2%
- Study 1 - ALT Mean CFB [8]: 4.0 IU/L
- Study 1 - ALT Mean percentage CFB [8]: 47.8%
- Study 1 - ALT Mean CFB (continued 100 mg q.d., week 1): 3.0 IU/L
- Study 1 - ALT Mean percentage CFB (continued 100 mg q.d., week 1): 13.6%
- Study 1 - ALT Mean CFB (continued 100 mg q.d., week 2): 0.9 IU/L
- Study 1 - ALT Mean percentage CFB (continued 100 mg q.d., week 2): 8.8%
- Study 1 - ALT Mean CFB (continued 100 mg q.d., week 4): 0.6 IU/L
- Study 1 - ALT Mean percentage CFB (continued 100 mg q.d., week 4): 9.1%
- Study 1 - ALT Mean CFB (continued 100 mg q.d., week 8): 1.7 IU/L
- Study 1 - ALT Mean percentage CFB (continued 100 mg q.d., week 8): 15.1%
- Study 1 - ALT Mean CFB (continued 100 mg q.d., week 12): 1.6 IU/L
- Study 1 - ALT Mean percentage CFB (continued 100 mg q.d., week 12): 15.6%
- Study 1 - ALT Mean CFB (continued 100 mg q.d., week 16): 0.7 IU/L
- Study 1 - ALT Mean percentage CFB (continued 100 mg q.d., week 16): 9.5%
- Study 1 - ALT Mean CFB (continued 100 mg q.d., week 20): 1.8 IU/L
- Study 1 - ALT Mean percentage CFB (continued 100 mg q.d., week 20): 19.8%
- Study 1 - ALT Mean CFB (continued 100 mg q.d., week 24): 5.1 IU/L
- Study 1 - ALT Mean percentage CFB (continued 100 mg q.d., week 24): 39.5%
- Study 1 - ALT Mean CFB (continued 200 mg q.d., week 1): 2.3 IU/L
- Study 1 - ALT Mean percentage CFB (continued 200 mg q.d., week 1): 11.4%
- Study 1 - ALT Mean CFB (continued 200 mg q.d., week 2): 1.4 IU/L
- Study 1 - ALT Mean percentage CFB (continued 200 mg q.d., week 2): 15.5%
- Study 1 - ALT Mean CFB (continued 200 mg q.d., week 4): 1.1 IU/L
- Study 1 - ALT Mean percentage CFB (continued 200 mg q.d., week 4): 15.1%
- Study 1 - ALT Mean CFB (continued 200 mg q.d., week 8): 3.9 IU/L
- Study 1 - ALT Mean percentage CFB (continued 200 mg q.d., week 8): 31.1%
- Study 1 - ALT Mean CFB (continued 200 mg q.d., week 12): 3.4 IU/L
- Study 1 - ALT Mean percentage CFB (continued 200 mg q.d., week 12): 33.9%
- Study 1 - ALT Mean CFB (continued 200 mg q.d., week 16): 4.7 IU/L
- Study 1 - ALT Mean percentage CFB (continued 200 mg q.d., week 16): 43.8%
- Study 1 - ALT Mean CFB (continued 200 mg q.d., week 20): 2.9 IU/L
- Study 1 - ALT Mean percentage CFB (continued 200 mg q.d., week 20): 32.9%
- Study 1 - ALT Mean CFB (continued 200 mg q.d., week 24): 5.4 IU/L
- Study 1 - ALT Mean percentage CFB (continued 200 mg q.d., week 24): 47.5%
- Study 1 - ALT Mean CFB [9]: −7.8 IU/L
- Study 1 - ALT Mean percentage CFB [9]: −16.4%
- Study 1 - ALT Mean CFB [10]: −7.3 IU/L
- Study 1 - ALT Mean percentage CFB [10]: −12.0%
- Study 1 - ALT Mean CFB [11]: −5.6 IU/L
- Study 1 - ALT Mean percentage CFB [11]: 0.0%
- Study 1 - ALT Mean CFB [12]: −8.3 IU/L
- Study 1 - ALT Mean percentage CFB [12]: −16.4%
- Study 1 - ALT Mean CFB [13]: −6.4 IU/L
- Study 1 - ALT Mean percentage CFB [13]: −5.8%
- Study 1 - ALT Mean CFB [14]: −7.9 IU/L
- Study 1 - ALT Mean percentage CFB [14]: −9.7%
- Study 1 - ALT Mean CFB [15]: −5.4 IU/L
- Study 1 - ALT Mean percentage CFB [15]: 5.9%
- Study 1 - ALT Mean CFB [16]: −4.8 IU/L
- Study 1 - ALT Mean percentage CFB [16]: 5.7%
- Study 1 - ALT Mean CFB [17]: 0.4 IU/L
- Study 1 - ALT Mean percentage CFB [17]: 0.9%
- Study 1 - ALT Mean CFB [18]: −1.4 IU/L
- Study 1 - ALT Mean percentage CFB [18]: −6.5%
- Study 1 - ALT Mean CFB [19]: −0.3 IU/L
- Study 1 - ALT Mean percentage CFB [19]: 2.2%
- Study 1 - ALT Mean CFB [20]: −0.2 IU/L
- Study 1 - ALT Mean percentage CFB [20]: 3.6%
- Study 1 - ALT Mean CFB [21]: −0.1 IU/L
- Study 1 - ALT Mean percentage CFB [21]: 5.2%
- Study 1 - ALT Mean CFB [22]: −2.3 IU/L
- Study 1 - ALT Mean percentage CFB [22]: −9.8%
- Study 1 - ALT Mean CFB [23]: −1.7 IU/L
- Study 1 - ALT Mean percentage CFB [23]: −3.7%
- Study 1 - ALT Mean CFB [24]: −3.0 IU/L
- Study 1 - ALT Mean percentage CFB [24]: −8.7%
- Study 1 - ALT Mean CFB [25]: 0.5 IU/L
- Study 1 - ALT Mean percentage CFB [25]: 1.1%
- Study 1 - ALT Mean CFB [26]: 0.7 IU/L
- Study 1 - ALT Mean percentage CFB [26]: 0.7%
- Study 1 - ALT Mean CFB [27]: 1.0 IU/L
- Study 1 - ALT Mean percentage CFB [27]: 6.8%
- Study 1 - ALT Mean CFB [28]: −1.3 IU/L
- Study 1 - ALT Mean percentage CFB [28]: 0.4%
- Study 1 - ALT Mean CFB [29]: 0.5 IU/L
- Study 1 - ALT Mean percentage CFB [29]: 5.9%
- Study 1 - ALT Mean CFB [30]: −0.1 IU/L
- Study 1 - ALT Mean percentage CFB [30]: 10.0%
